Reference: patent US9540325B2, “N1-cyclic amine-N5-substituted phenyl biguanide derivatives, methods of preparing the same and pharmaceutical composition comprising the same” (Immunomet Therapeutics, Inc., priority 2011, dated 2017)

Key:
[1] = tested on: HCT116 cells; assay: Measurement of effect of inhibiting cancer cell proliferation (MTT); type: cell-based, human; conditions: for inhibition at 100 µM: HCT-116, 100 μM, read-out: Cell Growth Inhibition (%) at 100 μM
How it was run: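 HCT116 cells (~5,000/well, DMEM with 10% FBS) treated 48 h with compound at 0.39–100 μM, metformin hydrochloride control at 0.1–25 mM. Viability by MTT (3 h, formazan in DMSO, A560) relative to untreated wells; GIC50 from the viability curve, also viability at 100 μM.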

[2] = tested on: MCF7 cells (breast cancer stem cell, mammosphere); assay: Measurement of effect of inhibiting mammosphere formation; type: cell-based, human; conditions: MCF7, 8 days; for Number of Mammospheres: size 50 um or more; for inhibition at 0.1 µM / inhibition at 1 µM / inhibition at 5 µM / inhibition at 10 µM: Homo sapiens, 192 h, vs untreated, read-out: Mammosphere formation inhibition rate (%)
Source text: The cancer stem cells refer to cancer cells that have self-regeneration or differentiation capacity which is characteristically innate to stem cells. Here, the cancer stem cells show resistance to conventional anticancer therapy and poor prognosis. Therefore, the biguanide derivative has an effect of inhibiting cancer recurrence by inhibiting formation and proliferation of cancer stem cells, especially, breast cancer stem cells (mammosphere). Accordingly, the effect of the biguanide derivative of inhibiting breast cancer stem cell (mammosphere) formation was measured in an MCF7 cell line derived from human breast cancer forming mammospheres, and simple experimental methods are described, as follows.
MCF7 cells derived from human breast cancer were cultured (culture temperature: 37° C., pH: 7.0 to 7.4) in a DMEM medium supplemented with 10% (v/v) fetal bovine serum (commercially available from Gibco Life Technologies (US)) so that the MCF7 cells could grow to approximately 80% confluency and used in an experiment to determine an ability to form mammospheres. After MCF7 cells were made to single cells and the number of cell was counted, MCF7 cells were put in to a 24-well plate at 2,000 cells/well. […] Also, a culture media for forming mammospheres was prepared so that a serum-free DMEM/F12 medium could include 2% B27 (commercially available from Invitrogen), 20 ng/ml EGF (commercially available from Sigma), 5 μg/ml insulin (commercially available from Sigma) and 1 μg/ml hydrocortisone (commercially available from Sigma). Cells were cultured in a CO2 incubator for 24 hours and treated with each of the compounds synthesized in the examples at contents of 0.1 μM, 1 μM, 5 μM and 10 μM. Then, the cultured cells were added to the culture media for forming mammospheres so that a final volume of the culture broth could be adjusted to 1 ml. The cells were treated with the same concentrations of phenformin hydrochloride as the control and cultured in a CO2 incubator for 8 days. Thereafter, the mammosphere-forming efficiency and size of the cells were observed. After 8 days, the number of mammospheres having a size of 50 um or more was determined to calculate the mammosphere-forming efficiency (MFE (%)). The MFE (%) is calculated according to the following Equation 1.
When the cells were cultured for 8 days, MFE (%) of the cells on a plate treated with the phenformin hydrochloride and the compounds synthesized in the examples was compared with MFE (%) of the cells on a plate that was not treated with the compounds. The results are listed as the mammosphere formation inhibition rate (%) in the following Table 4, and the mammosphere-forming efficiencies of the respective compounds are shown in FIG. 1.

Row | GI50 ([1]; Homo sapiens, HCT-116, 48 h) | GI50 ([1]; 48 hours, hydrochloride) | SMILES | inhibition at 100 µM ([1]; Homo sapiens, 48 hours) | MFE (%) (mammosphere-forming efficiency) ([2]; 0.1 μM) | Number of Mammospheres ([2]; 0.1 μM) | MFE (%) (mammosphere-forming efficiency) ([2]; 1 μM) | Number of Mammospheres ([2]; 1 μM) | MFE (%) (mammosphere-forming efficiency) ([2]; 5 μM) | Number of Mammospheres ([2]; 5 μM) | MFE (%) (mammosphere-forming efficiency) ([2]; 10 μM) | Number of Mammospheres ([2]; 10 μM) | inhibition at 0.1 µM ([2]; 0.1 μM) | inhibition at 1 µM ([2]; 1 μM) | inhibition at 5 µM ([2]; 5 μM) | inhibition at 10 µM ([2]; 10 μM)
1 | 48.2 µM |  | Cl.N=C(NC(=N)N1CCCCC1)Nc1cccc(Cl)c1 [Example 20, N1-piperidine-N5-(3-chloro)phenyl biguanide hydrochloride] | 97.5% | 3.6% | 72 | 5.2% | 103 | 3.8% | 75 | 1.5% | 29 | 30.1% | 0% | 27.2% | 71.8%
2 | 41.5 µM |  | Cl.N=C(NC(=N)N1CCCCCC1)Nc1cccc(Cl)c1 [Example 21, N1-azepane-N5-(3-chloro)phenyl biguanide hydrochloride] | 97% | 5.8% | 115 | 5.3% | 105 | 3.6% | 71 ± 4.2 | 2.3% | 46 ± 2.1 | 30.1% | -1.9% | 31.1% | 55.8%
3 |  | 22.7 µM | Cl.N=C(NC(=N)N1CCCC1)Nc1ccc(C(F)(F)F)cc1 [Example 26, N1-pyrrolidine-N5-(4-trifluoromethyl)phenyl biguanide hydrochloride] | 97.6% | 5.3% | 105 | 5.6% | 112 | 6.0% | 120 | 3.6% | 72 ± 11.3 | -11.7% | -8.7% | -16.5% | 30.1%
4 | 6.7 µM |  | Cl.N=C(NC(=N)N1CCCCC1)Nc1ccc(C(F)(F)F)cc1 [Example 27, N1-piperidine-N5-(4-trifluoromethyl)phenyl biguanide hydrochloride] | 97.7% | 5.2% | 103 | 5.2% | 105 ± 16.3 | 3.0% | 61 ± 3.5 | 1.6% | 32 | 0% | -1.5% | 41.3% | 68.9%
